In article PMC7249761 (Journal of thoracic oncology : official publication of the …, 2016):

How the values were obtained:
[1] = system: cytochrome P450 family 3 subfamily A member 4 [CYP3A4]; details: cited from earlier work
[2] = assay type: in vivo, patients; details: with crizotinib 150 mg twice daily; 3 plus 3 design

| SMILES | CYP3A4 inhibition [1] | maximum tolerated dose (MTD) of erlotinib in the combination [2] [mg once daily] |
| --- | --- | --- |
| C[C@@H](Oc1cc(-c2cnn(C3CCNCC3)c2)cnc1N)c1c(Cl)ccc(F)c1Cl [crizotinib] | moderate cytochrome P450 family 3 subfamily A member 4 [CYP3A4] inhibitor | – |
| C#Cc1cccc(Nc2ncnc3cc(OCCOC)c(OCCOC)cc23)c1 [erlotinib] | – | 100 |
